Experimental data: the supplement of paper PMC8671470

Experiments:
Details in all cases: 72 h
[1] = test system: HEL; assay: cell viability (% survival relative to DMSO control, bortezomib = 0%); higher = less cytotoxic
Procedure, shortened: (§1)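 Fifteen myeloid leukaemia cell lines were exposed to compounds at 1, 10, 100, 1000 or 10000 nM in 384-well plates for 72 h at 37 °C and 5% CO2. Viability was read by CellTiter-Glo luminescence and normalised, with vehicle as 100% and a 10 µM positive control as 0%. Values are percent survival averaged over duplicates.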

[2] = test system: HL-60; assay: as above
Procedure, shortened: as §1

[3] = test system: KCL-22; assay: as above
Procedure, shortened: as §1

[4] = test system: NOMO-1; assay: as above
Procedure, shortened: as §1

[5] = test system: Mono-Mac-6; assay: as above
Procedure, shortened: as §1

[6] = test system: SHI-1; assay: as above
Procedure, shortened: as §1

[7] = test system: ML-2; assay: as above
Procedure, shortened: as §1

[8] = test system: THP-1; assay: as above
Procedure, shortened: as §1

[9] = test system: MV4-11; assay: as above
Procedure, shortened: as §1

[10] = test system: MOLM-13; assay: as above
Procedure, shortened: as §1

[11] = test system: KU-812; assay: as above
Procedure, shortened: as §1

[12] = test system: LAMA-84; assay: as above
Procedure, shortened: as §1

[13] = test system: K-562; assay: as above
Procedure, shortened: as §1

[14] = test system: BV-173; assay: as above
Procedure, shortened: as §1

[15] = test system: KG-1; assay: as above
Procedure, shortened: as §1

[16] = test system: HL-60
Procedure, shortened: (§2)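 In 384-well plates holding acoustically pre-printed compounds at five tenfold doses from 1 to 10,000 nM, in duplicate, fifteen myeloid leukaemia cell lines were grown in RPMI 1640 for 72 h at 37 °C with 5% CO2. Luminescent ATP viability was scaled between vehicle and a positive control at 10 µM. The IC50 was then taken from log-logistic dose–response fits with four parameters.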

[17] = test system: KCL-22
Procedure, shortened: as §2

[18] = test system: NOMO-1
Procedure, shortened: as §2

[19] = test system: ML-2
Procedure, shortened: as §2

[20] = test system: KG-1
Procedure, shortened: as §2

[21] = test system: HL-60; assay: cell viability (% survival relative to DMSO control); higher = less cytotoxic
Procedure, shortened: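 HL-60 cells in RPMI 1640 with 10% FBS were rescreened against the full library on 384-well plates at five tenfold concentrations, 1–10,000 nM, in duplicate. Each screen was run with DMSO or 100 nM of one of three metabolic inhibitors, for 72 h at 37 °C, 5% CO2. Viability was read by CellTiter-Glo and normalised to DMSO and 10 μM proteasome-inhibitor wells. Where given, area under the curve came from four-parameter log-logistic fits (drc, PharmacoGx).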

Cc1c2c(=O)n(-c3ccccc3Cl)[nH]c2cc(=O)n1Cc1ccccn1
cell viability [%]
Details | 1 nM | 10 nM | 100 nM | 1000 nM | 10000 nM
[1] | 77.9 | 114 | 88.2 | 103 | 106
[2] | 71 | 96.2 | 94.5 | 90.8 | 105
[3] | 60.5 | 119 | 84.4 | 94.6 | 106
[4] | 102 | 111 | 95.8 | 100 | 98.3
[5] | 89 | 109 | 96 | 103 | 99.5
[6] | 84.3 | 103 | 95.7 | 80.8 | 75.9
[7] | 86.5 | 112 | 95.4 | 98.6 | 101
[8] | 95.8 | 113 | 99.1 | 94.2 | 96.6
[9] | 101 | 107 | 89.7 | 71.9 | 59.2
[10] | 84.7 | 101 | 96.7 | 71.4 | 38.5
[11] | 88 | 101 | 92 | 100 | 98.1
[12] | 93.8 | 108 | 100 | 99.9 | 99.9
[13] | 109 | 92.5 | 89.3 | 77.7 | 54
[14] | 98 | 104 | 94.6 | 95.5 | 81.4
[15] | 92.4 | 105 | 89.6 | 102 | 104

Details | IC50 (cell viability) [µM]
[16] | > 10
[17] | > 10
[18] | > 10
[19] | > 10
[20] | > 10

O=C([O-])CC(O)(C(=O)[O-])C(O)C(=O)[O-].[K+].[K+].[K+] (stereo not given) [Hydroxycitrate]
cell viability [%]
Details | 1 nM | 10 nM | 100 nM | 1000 nM | 10000 nM
[1] | 79.6 | 98.2 | 112 | 95.1 | 99.6
[2] | 55.8 | 96.6 | 92.9 | 75.4 | 103
[3] | 86.5 | 109 | 104 | 84.7 | 88
[4] | 83.1 | 101 | 99.1 | 95.8 | 102
[5] | 87.8 | 86.8 | 98 | 90.6 | 99.5
[6] | 80.8 | 112 | 92 | 100 | 88.6
[7] | 90.3 | 95.8 | 78.1 | 104 | 97
[8] | 83.8 | 93.4 | 97.5 | 97.7 | 105
[9] | 81.4 | 107 | 111 | 106 | 90.2
[10] | 68.9 | 104 | 99.4 | 89.5 | 92.5
[11] | 94.4 | 98.4 | 105 | 97.3 | 92.4
[12] | 93 | 95.9 | 115 | 93.8 | 96.4
[13] | 81.6 | 98.8 | 102 | 110 | 108
[14] | 80.2 | 95.7 | 89.1 | 104 | 105
[15] | 80 | 94.5 | 93.6 | 102 | 91.5

Details | IC50 (cell viability) [µM]
[16] | > 10
[17] | > 10
[18] | > 10
[19] | > 10
[20] | > 10

cell viability [%], [21]
Details | 0.001 µM | 0.01 µM | 0.1 µM | 1 µM | 10 µM
co-treatment: AZD3965 100 nM | 87.2 | 94.9 | 100 | 106.2 | 97.3
co-treatment: DMSO vehicle | 97.7 | 97.98 | 103.8 | 87.7 | 92.4
co-treatment: GSK2194069 100 nM | 101 | 99.09 | 103 | 95.3 | 98.1
co-treatment: pictilisib 100 nM | 93.7 | 90.3 | 108 | 97.3 | 94.4

Cc1c(Cl)cccc1S(=O)(=O)Nc1nc(CC(=O)N2CCN(C)CC2)cs1 [BVT-2733]
cell viability [%]
Details | 1 nM | 10 nM | 100 nM | 1000 nM | 10000 nM
[1] | 106 | 82.9 | 96.3 | 108 | 101
[2] | 99.9 | 93.4 | 78.9 | 122 | 93.5
[3] | 114 | 83.6 | 97.9 | 98.2 | 98.1
[4] | 105 | 97.6 | 99.1 | 99.1 | 95.4
[5] | 107 | 88 | 107 | 114 | 99.6
[6] | 110 | 101 | 105 | 111 | 104
[7] | 108 | 91.1 | 92.6 | 108 | 99.6
[8] | 107 | 91 | 100 | 97 | 92.9
[9] | 107 | 95.1 | 88.3 | 108 | 112
[10] | 99.7 | 89.1 | 97.8 | 110 | 96.4
[11] | 107 | 95.4 | 96.6 | 95.9 | 86.4
[12] | 101 | 93.4 | 96.9 | 105 | 99.9
[13] | 98 | 83.5 | 87.1 | 104 | 102
[14] | 102 | 103 | 94.8 | 93.3 | 88.5
[15] | 102 | 92.8 | 94.2 | 98.2 | 105

Details | IC50 (cell viability) [µM]
[16] | > 10
[17] | > 10
[18] | > 10
[19] | > 10
[20] | > 10

cell viability [%], [21]
Details | 0.001 µM | 0.01 µM | 0.1 µM | 1 µM | 10 µM
co-treatment: AZD3965 100 nM | 101.68 | 102 | 97.2 | 98.13 | 99.4
co-treatment: DMSO vehicle | 101 | 103.3 | 98.9 | 98.1 | 98.8
co-treatment: GSK2194069 100 nM | 103.6 | 105 | 97 | 88.4 | 99.66
co-treatment: pictilisib 100 nM | 96.1 | 99.8 | 96.6 | 87.2 | 97.9

C=CCN(C)CCCCCCOc1ccc(C(=O)c2ccc(Br)cc2)c(F)c1.O=C(O)/C=C/C(=O)O [Ro 48-8071 fumarate]
cell viability [%]
Details | 1 nM | 10 nM | 100 nM | 1000 nM | 10000 nM
[1] | 112 | 102 | 102 | 109 | 86.7
[2] | 115 | 88.4 | 84.3 | 98.8 | 24.7
[3] | 99.6 | 98.6 | 96.3 | 87.4 | 77.5
[4] | 104 | 97 | 98.1 | 105 | 92.7
[5] | 92.2 | 87.6 | 92.4 | 96 | 63.8
[6] | 103 | 100 | 101 | 105 | 58.5
[7] | 106 | 98.5 | 106 | 96.4 | 68.9
[8] | 102 | 91.7 | 105 | 101 | 80.3
[9] | 91.5 | 114 | 84.4 | 83.4 | 50.6
[10] | 132 | 113 | 88.9 | 89.1 | 62.2
[11] | 90.2 | 92.4 | 76.2 | 80.7 | 43.3
[12] | 90.6 | 100 | 81.1 | 83.8 | 47
[13] | 87 | 104 | 102 | 82.2 | 19.6
[14] | 90.3 | 86.2 | 66.2 | 63.3 | 29.5
[15] | 110 | 101 | 78.5 | 80.7 | 52.3

Details | IC50 (cell viability) [µM]
[16] | 5.92
[17] | > 10
[18] | > 10
[19] | > 10
[20] | 6.11

cell viability [%], [21]
Details | 0.001 µM | 0.01 µM | 0.1 µM | 1 µM | 10 µM
co-treatment: AZD3965 100 nM | 99.39 | 92.3 | 103 | 94.9 | 44.1
co-treatment: DMSO vehicle | 99.1 | 86.3 | 107 | 102 | 75.5
co-treatment: GSK2194069 100 nM | 103 | 68.3 | 101 | 104 | 53
co-treatment: pictilisib 100 nM | 113 | 93.6 | 99.37 | 84.2 | 38.3

COc1ccc2c(NC(=O)Nc3cccc(C(F)(F)F)n3)ccnc2c1
cell viability [%]
Details | 1 nM | 10 nM | 100 nM | 1000 nM | 10000 nM
[1] | 116 | 99.2 | 105 | 106 | 108
[2] | 86.5 | 129 | 116 | 116 | 98.3
[3] | 101 | 102 | 110 | 94.9 | 114
[4] | 97.4 | 98.2 | 113 | 94.5 | 113
[5] | 108 | 92.3 | 95.7 | 94.9 | 97.1
[6] | 93.6 | 109 | 104 | 110 | 85.4
[7] | 101 | 97.6 | 109 | 122 | 127
[8] | 95.5 | 101 | 105 | 95.2 | 107
[9] | 102 | 103 | 101 | 85.7 | 77.2
[10] | 105 | 115 | 113 | 108 | 44.5
[11] | 116 | 102 | 108 | 109 | 112
[12] | 102 | 100 | 105 | 100 | 100
[13] | 104 | 100 | 95.3 | 93.7 | 103
[14] | 104 | 93.6 | 111 | 102 | 87.4
[15] | 90.7 | 85 | 92 | 93.9 | 120

Details | IC50 (cell viability) [µM]
[16] | > 10
[17] | > 10
[18] | > 10
[19] | > 10
[20] | > 10

cell viability [%], [21]
Details | 0.001 µM | 0.01 µM | 0.1 µM | 1 µM | 10 µM
co-treatment: AZD3965 100 nM | 100 | 99.88 | 104.1 | 101.3 | 101
co-treatment: DMSO vehicle | 101.7 | 82.9 | 103 | 103 | 111
co-treatment: GSK2194069 100 nM | 95.4 | 95.5 | 99.2 | 95.9 | 92.5
co-treatment: pictilisib 100 nM | 104 | 73.9 | 98.4 | 86.5 | 121
